Results as given in patent US7994140B2, “Classes of compounds that interact with GPCRs” (Alchemia Limited, priority 2002, dated 2011).

What follows are compounds tested against T1, MC4 (Homo sapiens, UniProt P32245) (assay: GPCR radioligand binding (RLB) assay, melanocortin MC4, [125I]NDP-αMSH). Conditions: 10 micromolar compound; recombinant human receptor membranes (HEK 293).
T1 construct: purchased Perkin Elmer BioSignal; host or cells: HEK 293
In short: (§1)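 Membranes from HEK 293 cells expressing the recombinant human receptor were equilibrated with [125I]SST-14 (SST5) or [125I]NDP-αMSH (MC4), then compound added for an optimized incubation. Bound ligand separated by filtration on PEI-coated glass fiber and counted by liquid scintillation.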

T1 sequence (P32245 whole entry): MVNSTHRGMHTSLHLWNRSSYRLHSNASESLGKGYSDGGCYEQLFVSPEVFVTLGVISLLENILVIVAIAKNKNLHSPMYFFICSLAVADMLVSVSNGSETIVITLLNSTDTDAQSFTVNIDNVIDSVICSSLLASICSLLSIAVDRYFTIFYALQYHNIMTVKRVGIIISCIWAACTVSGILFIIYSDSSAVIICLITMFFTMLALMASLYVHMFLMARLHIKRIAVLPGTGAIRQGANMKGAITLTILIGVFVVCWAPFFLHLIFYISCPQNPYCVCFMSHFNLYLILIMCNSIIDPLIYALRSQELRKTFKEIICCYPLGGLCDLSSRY

| SMILES | MC4 inhibition at 10 micromolar |
| --- | --- |
| CSC1OC(COCc2ccc(-c3ccccc3)cc2)C(O)C(OCc2ccc(-c3ccccc3)cc2)C1NC(=O)CN (centres unmarked) [Compound 179] | + (Indicates inhibition greater than . . . 50%) |
| CSC1OC(COCc2ccc3ccccc3c2)C(O)C(OCc2ccc3ccccc3c2)C1NC(=O)CN (centres unmarked) [Compound 209] | + (Indicates inhibition greater than . . . 50%) |
| COC1C(O)C(COCc2ccc(Cl)cc2)OC(OCc2ccc3ccccc3c2)C1NC(=O)CCCN (centres unmarked) [Compound 77] | + (Indicates inhibition greater than . . . 50%) |
| COC1C(O)C(COCc2ccc(-c3ccccc3)cc2)OC(OCc2ccc(Cl)cc2)C1NC(=O)CCNC(=N)N (centres unmarked) [Compound 84] | + (Indicates inhibition greater than . . . 50%) |
| CO[C@H]1[C@H](O)[C@@H](COCc2ccc(-c3ccccc3)cc2)OC(OCCc2ccccc2)[C@@H]1NC(=O)CCCN (some centres unmarked) [Compound 98] | + (Indicates inhibition greater than . . . 50%) |
| CSC1OC(COCc2ccc3ccccc3c2)C(O)C(OCc2ccc(-c3ccccc3)cc2)C1NC(=O)CCNC(=N)N (centres unmarked) [Compound 188] | + (Indicates inhibition greater than . . . 50%) |
| CSC1OC(COCc2ccc3ccccc3c2)C(O)C(OCc2ccc(Cl)cc2)C1NC(=O)CCN (centres unmarked) [Compound 163] | + (Indicates inhibition greater than . . . 50%) |

Same assay, conditions: 10 micromolar; Example Library 4

| SMILES | MC4 inhibition at 10 micromolar |
| --- | --- |
| COCC1OC(OCCc2ccccc2)C(NC(=O)CCCN)C(OCc2ccc3ccccc3c2)C1O (centres unmarked) [Compound 282] | + (Indicates inhibition greater than . . . 50%) |
| COCC1OC(OCc2ccccc2)C(NC(=O)CCNC(=N)N)C(OCc2ccccc2)C1O (centres unmarked) [Compound 216] | + (Indicates inhibition greater than . . . 50%) |
| COCC1OC(OCc2ccc3ccccc3c2)C(NC(=O)CCNC(=N)N)C(OCc2ccc(Cl)cc2)C1O (centres unmarked) [Compound 293] | + (Indicates inhibition greater than . . . 50%) |
| COCC1OC(OCc2ccccc2)C(NC(=O)CNC(=N)N)C(OCc2ccccc2)C1O (centres unmarked) [Compound 214] | + (Indicates inhibition greater than . . . 50%) |
| COCC1OC(OCc2ccccc2)C(NC(=O)CNC(=N)N)C(OCc2ccc(Cl)cc2)C1O (centres unmarked) [Compound 220] | + (Indicates inhibition greater than . . . 50%) |
| COCC1OC(OCc2ccc(Cl)cc2)C(NC(=O)CCCNC(=N)N)C(OCc2ccccc2)C1O (centres unmarked) [Compound 241] | + (Indicates inhibition greater than . . . 50%) |
| COCC1OC(OCCc2ccccc2)C(NC(=O)CCNC(=N)N)C(OCc2ccccc2)C1O (centres unmarked) [Compound 263] | + (Indicates inhibition greater than . . . 50%) |
| COCC1OC(OCc2ccc3ccccc3c2)C(NC(=O)CN)C(OCc2ccccc2)C1O (centres unmarked) [Compound 286] | + (Indicates inhibition greater than . . . 50%) |
| COCC1OC(OCc2ccc3ccccc3c2)C(NC(=O)CCCNC(=N)N)C(OCc2ccc(Cl)cc2)C1O (centres unmarked) [Compound 295] | + (Indicates inhibition greater than . . . 50%) |
| COCC1OC(OCc2ccc(Cl)cc2)C(NC(=O)CCCN)C(OCc2ccc(-c3ccccc3)cc2)C1O (centres unmarked) [Compound 252] | + (Indicates inhibition greater than . . . 50%) |
| COCC1OC(OCc2ccc(Cl)cc2)C(NC(=O)CCCNC(=N)N)C(OCc2ccc(Cl)cc2)C1O (centres unmarked) [Compound 247] | + (Indicates inhibition greater than . . . 50%) |
| COCC1OC(OCCc2ccccc2)C(NC(=O)CCNC(=N)N)C(OCc2ccc(Cl)cc2)C1O (centres unmarked) [Compound 269] | + (Indicates inhibition greater than . . . 50%) |

These compounds were tested against T2, SST5 (Homo sapiens, UniProt P35346) (assay: GPCR radioligand binding (RLB) assay, somatostatin SST5, [125I]SST-14). Conditions: 10 micromolar compound; recombinant human receptor membranes (HEK 293).
T2 construct: purchased Perkin Elmer BioSignal; host or cells: HEK 293
T2 sequence (P35346 whole entry): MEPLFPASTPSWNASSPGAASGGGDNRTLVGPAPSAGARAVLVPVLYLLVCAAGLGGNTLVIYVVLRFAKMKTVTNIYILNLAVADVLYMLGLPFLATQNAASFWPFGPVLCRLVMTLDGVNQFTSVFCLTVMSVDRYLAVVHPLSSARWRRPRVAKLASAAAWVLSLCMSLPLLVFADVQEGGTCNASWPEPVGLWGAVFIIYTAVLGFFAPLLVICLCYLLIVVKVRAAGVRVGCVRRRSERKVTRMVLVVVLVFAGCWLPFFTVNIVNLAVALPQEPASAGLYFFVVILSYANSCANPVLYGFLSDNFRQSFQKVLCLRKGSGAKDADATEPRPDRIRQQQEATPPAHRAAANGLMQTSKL
In short: as §1

| SMILES | SST5 inhibition at 10 micromolar |
| --- | --- |
| CSC1OC(COCc2ccc(-c3ccccc3)cc2)C(O)C(OCc2ccc(-c3ccccc3)cc2)C1NC(=O)CN (centres unmarked) [Compound 179] | + (Indicates inhibition greater than . . . 50%) |
| CSC1OC(COCc2ccc3ccccc3c2)C(O)C(OCc2ccc3ccccc3c2)C1NC(=O)CN (centres unmarked) [Compound 209] | + (Indicates inhibition greater than . . . 50%) |
| COC1C(O)C(COCc2ccc(Cl)cc2)OC(OCc2ccc3ccccc3c2)C1NC(=O)CCCN (centres unmarked) [Compound 77] | + (Indicates inhibition greater than . . . 50%) |
| COC1C(O)C(COCc2ccc(-c3ccccc3)cc2)OC(OCc2ccc(Cl)cc2)C1NC(=O)CCNC(=N)N (centres unmarked) [Compound 84] | + (Indicates inhibition greater than . . . 50%) |
| CO[C@H]1[C@H](O)[C@@H](COCc2ccc(-c3ccccc3)cc2)OC(OCCc2ccccc2)[C@@H]1NC(=O)CCCN (some centres unmarked) [Compound 98] | + (Indicates inhibition greater than . . . 50%) |
| CSC1OC(COCc2ccc3ccccc3c2)C(O)C(OCc2ccc(-c3ccccc3)cc2)C1NC(=O)CCNC(=N)N (centres unmarked) [Compound 188] | + (Indicates inhibition greater than . . . 50%) |
| CSC1OC(COCc2ccc3ccccc3c2)C(O)C(OCc2ccc(Cl)cc2)C1NC(=O)CCN (centres unmarked) [Compound 163] | + (Indicates inhibition greater than . . . 50%) |

Same assay, conditions: 10 micromolar; Example Library 4

| SMILES | SSTS inhibition at 10 micromolar |
| --- | --- |
| COCC1OC(OCCc2ccccc2)C(NC(=O)CCCN)C(OCc2ccc3ccccc3c2)C1O (centres unmarked) [Compound 282] | + (Indicates inhibition greater than . . . 50%) |
| COCC1OC(OCc2ccccc2)C(NC(=O)CCNC(=N)N)C(OCc2ccccc2)C1O (centres unmarked) [Compound 216] | + (Indicates inhibition greater than . . . 50%) |
| COCC1OC(OCc2ccc3ccccc3c2)C(NC(=O)CCNC(=N)N)C(OCc2ccc(Cl)cc2)C1O (centres unmarked) [Compound 293] | + (Indicates inhibition greater than . . . 50%) |
| COCC1OC(OCc2ccccc2)C(NC(=O)CNC(=N)N)C(OCc2ccccc2)C1O (centres unmarked) [Compound 214] | + (Indicates inhibition greater than . . . 50%) |
| COCC1OC(OCc2ccccc2)C(NC(=O)CNC(=N)N)C(OCc2ccc(Cl)cc2)C1O (centres unmarked) [Compound 220] | + (Indicates inhibition greater than . . . 50%) |
| COCC1OC(OCc2ccc(Cl)cc2)C(NC(=O)CCCNC(=N)N)C(OCc2ccccc2)C1O (centres unmarked) [Compound 241] | + (Indicates inhibition greater than . . . 50%) |
| COCC1OC(OCCc2ccccc2)C(NC(=O)CCNC(=N)N)C(OCc2ccccc2)C1O (centres unmarked) [Compound 263] | + (Indicates inhibition greater than . . . 50%) |
| COCC1OC(OCc2ccc3ccccc3c2)C(NC(=O)CN)C(OCc2ccccc2)C1O (centres unmarked) [Compound 286] | + (Indicates inhibition greater than . . . 50%) |
| COCC1OC(OCc2ccc3ccccc3c2)C(NC(=O)CCCNC(=N)N)C(OCc2ccc(Cl)cc2)C1O (centres unmarked) [Compound 295] | + (Indicates inhibition greater than . . . 50%) |
| COCC1OC(OCc2ccc(Cl)cc2)C(NC(=O)CCCN)C(OCc2ccc(-c3ccccc3)cc2)C1O (centres unmarked) [Compound 252] | + (Indicates inhibition greater than . . . 50%) |
| COCC1OC(OCc2ccc(Cl)cc2)C(NC(=O)CCCNC(=N)N)C(OCc2ccc(Cl)cc2)C1O (centres unmarked) [Compound 247] | + (Indicates inhibition greater than . . . 50%) |
| COCC1OC(OCCc2ccccc2)C(NC(=O)CCNC(=N)N)C(OCc2ccc(Cl)cc2)C1O (centres unmarked) [Compound 269] | + (Indicates inhibition greater than . . . 50%) |
